Test results reported in US20240165196A1, “Beta-Lactamase Inhibitors” (VIB VZW, priority 2021, published 2024).

How the values were obtained:
[1] = target: T1, TEM-1 (Escherichia coli, UniProt P62593); assay: thermal denaturation with right-angle/static light scattering (aggregation) in presence of beta-lactamase inhibitors; type: biochemical, E. coli; details: TEM-1, dose titration of inhibitor
T1 construct: DNA TEM (870 bp) or SHV (894 bp) were each sub-cloned into a PUC57 vector cloning site NdeI/XhoI; His-tag (N); TEV cleavage site (N); made in house; host or cells: E. coli BL21 (DE3)
T1 sequence (P62593 24-286 limits assumed): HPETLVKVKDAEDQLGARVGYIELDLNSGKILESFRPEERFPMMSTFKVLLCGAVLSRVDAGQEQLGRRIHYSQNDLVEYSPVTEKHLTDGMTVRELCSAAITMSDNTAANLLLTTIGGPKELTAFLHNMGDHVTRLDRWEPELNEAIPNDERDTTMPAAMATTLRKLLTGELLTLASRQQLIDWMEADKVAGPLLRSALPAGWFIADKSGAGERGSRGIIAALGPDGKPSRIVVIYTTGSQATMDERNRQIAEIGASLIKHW
Text: (FIG. 1E) Heat denaturation of TEM-1 monitored by intrinsic fluorescence plotted as the BaryCentric Mean (BCM) of the fluorescence emission spectrum in the presence (red) and absence (blue) of tazobactam. […] (FIG. 1F) Temperature-dependent evolution of the Right-Angle Light Scattering (RALS) intensity measured simultaneously with the data in FIG. 1G to monitor protein aggregation. […] (FIGS. 1G, 1H, 1I, and 1J) Same data as in FIG. 1F, but showing a dose-titration of different beta-lactamase inhibitors: tazobactam (FIG. 1G), clavulanate (FIG. 1H), vaborbactam (FIG. 1I) and avibactam (FIG. 1J). Each curve a single experiment, which was repeated in triplicate.
Then, we performed a thermal denaturation whilst simultaneously monitoring the intrinsic fluorescence as a measure of the folding status of the molecule (FIG. 1E), and the static light scattering as a measure of aggregation (FIG. 1F).

[2] = system: E. coli strain UZ_TEM104; type: cell-based; details: in presence of additive at 50 μg/mL
[3] = system: E. coli strain UZ_TEM104; type: cell-based; details: peptide alone
Text: In order to generate a synthetic amyloid peptide capable of inactivating the TEM-1 beta-lactamase enzyme by capitalizing on its aggregation propensity, we applied a previously developed design pattern for synthetic aggregating sequences. This involves a tandem repeat of the APR, each instance flanked by charged amino acids for solubility and separated by a short peptide linker^19,20,23 (FIG. 2G). Previous work has shown that good bacterial uptake can be achieved using one positively charged arginine residue on the N-terminal side of each APR in the tandem and two arginine residues on the C-terminal side. This has the additional benefit of reducing the self-aggregation of the peptides and increasing their solubility prior to target engagement. As before, we employed a single Pro residue as a linker between the APRs and focused on an APR length of seven, extending shorter APRs to this length by incorporating flanking amino acids unless they were obvious aggregation breakers (Arg, Lys, Asp, Glu or Pro, see Table 1). We obtained these peptides from solid phase synthesis, followed by HPLC purification to a purity judged by reverse phase chromatography of at least 90% (Genscript).
Determination of MIC values using the broth microdilution in the 96-well plate (BD Biosciences, Belgium) according to the EUCAST guideline, which was performed in 96-well polystyrene flat bottom microtiter plates (BD Biosciences). Briefly, a single colony was inoculated into 5 mL Difco™ Mueller Hinton Broth (BD Biosciences Ref 275730) and grown to the end-exponential growth phase in a shaking incubator at 37° C. Cultures were subsequently diluted to an MacFarland (0.5 optical density) then the culture was diluted to reach 10^6 CFU/mL in fresh MHB medium. 50 μl of different concentration of peptides ranging from 128 to 2 μg/mL were serially diluted to the sterile 96-well plate in MHB. 50 μL of the diluted bacteria in MHB were pipetted into 96-well plates to reach the final volume of 100 μL. The bacteria grown with the maximum concentration of carrier and medium were considered as positive and negative controls, respectively. The plates were statically incubated overnight at 37° C. to allow bacterial growth. OD was measured at 590 nm a multipurpose ultraviolet-visible plate reader, and the absorbance of the growth bacteria was measured using absorbance reader. Bacterial growth was also visually inspected and agreed well with the OD reading.

| Compound | aggregation of the enzyme (static light scattering), dose-response [1] | MIC penicillin [2] [µg/mL] | MIC peptide [3] [µg/mL] |
| --- | --- | --- | --- |
| O=C(O)[C@H]1/C(=C/CO)O[C@@H]2CC(=O)N21 [clavulanate] | reduce the aggregation of the enzyme in a dose-responsive manner |  |  |
| Ac-RLLLTTIGRRPRLLLTTIGRR-NH2 [TEM2.0] |  | 800 | >100 |
| NC(=O)[C@@H]1CC[C@@H]2CN1C(=O)N2OS(=O)(=O)O [avibactam] | reduce the aggregation of the enzyme in a dose-responsive manner |  |  |
| O=C(O)C[C@@H]1CC[C@H](NC(=O)Cc2cccs2)B(O)O1 [vaborbactam] | reduce the aggregation of the enzyme in a dose-responsive manner |  |  |
